Assay results reported in PMC12903969, “Discovery of a Novel and Potent Kir4.1 Inhibitor as a Safe and Rapid‐Onset Antidepressant Agent in Mice” (Advanced Science, 2025).
Where “and” joins values, the source holds several entries; their conditions need not be identical. Identical values can stand only once. Like-named read-outs stand apart in the source and are kept apart here.

Assays:
C57BL/6J mice after CSDS = assay: CSDS model, social interaction test; assay type: in vivo
Description: The 10‐day CSDS paradigm was conducted as previously described.^[ [24] ^] CD‐1 aggressive mice were singly housed in defeat cages on one side of a perforated plexiglass partition 24 h before the defeat session. Experimental C57BL/6J mice were placed daily on the resident cage side of a novel CD‐1 aggressor that rapidly initiated a physical attack on the intruder. After 10‐min of social defeat, the intruder mice were housed on the opposite side of the partition within a shared home cage, experiencing further sensory contact for the subsequent 24 h. In contrast, control mice were maintained in their home cages and allowed to explore the empty defeat cages for 10 min each day.
C57BL/6J mice, comprising both control and experimental groups, were placed individually into the social open field with a plexiglass enclosure positioned along the side wall. Movement parameters, including the time spent in the interaction zone, corner zones, and locomotion, were monitored and analyzed over the two test sessions using the AnyMaze Tracking System. In the first session, the mice freely explored the arena for 2.5 min. Then, a new aggressive CD‐1 mouse was introduced into the plexiglass enclosure, and the experimental mice returned to the arena for the second 2.5‐min session. The social interaction ratio was determined as the ratio between the time the experimental mice spent in the interaction zone when the target CD‐1 was present and the time spent in the zone when it was absent.

[1] = test system: MDA-MB-468 breast cancer cells; assay: Cytotoxicity test (CCK-8); assay type: cell-based; conditions: Homo sapiens, MDA-MB-468, 48 h, CCK-8, 48 h; read-out: IC50 against MDA-MB-468 breast cancer cells
In short: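 Cells seeded at 12,000/well in L15 for 24 h, then exposed 48 h to compounds at 0.41-100.00 µM (DMSO <0.4%). Viability by 10% CCK-8, 2 h at 37 °C, absorbance 450 nm, expressed as percent of control.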

[2] = Plasma/tissue (kidney) distribution; assay type: in vivo; conditions: male, C57BL/6J, mouse, ip, mice (N = 3), 10 mg/kg i.p.
Description: Male C57BL/6J mice were used for both blood–brain penetration and plasma/tissue distribution studies, with mice assigned to three groups: 10 mg kg^−1 JX3212 (n = 3), 20 mg kg^−1 JX3212 (n = 3) for blood–brain penetration, and 10 mg kg^−1 JX3212 for plasma/tissue distribution (all administered via intraperitoneal injection), where mice in the blood–brain penetration groups were fasted for 12 h prior to drug administration and 2 h post‐administration; 1 h after drug administration, 0.2 mL of blood was collected from the retro‐orbital/orbital venous plexus into 1.5 mL heparinized tubes, centrifuged at 11 000 rpm for 5 min to obtain plasma (stored at −80 °C for blood–brain penetration groups), while whole brains were excised for blood–brain penetration groups and whole brains plus kidneys (rinsed with physiological saline, blotted dry on filter paper, and accurately weighed) for the plasma/tissue distribution group; plasma samples (20 µL) were mixed with 20 µL internal standard solution and 300 µL acetonitrile for protein precipitation, vortexed for 15 min, centrifuged at 3700 rpm for 15 min at 4 °C, and the supernatant was collected, whereas brain and kidney samples were homogenized in acetonitrile at 10× tissue weight (8000 rpm, 3 × 30 s), sonicated for 5 min, and processed identically to plasma samples; the concentrations of JX3212 in plasma and tissues were quantified by liquid chromatography–tandem mass spectrometry (LC−MS/MS), with lower limits of quantification set to 50 ng mL^−1 for plasma and 50 ng g^−1 for brain tissue.

c1ccc2c(c1)oc1ccc(Nc3ccnc(NCCCN4CCOCC4)n3)cc12 [JX3212, N^4-(dibenzo[b,d]furan-2-yl)-N^2-(3-morpholinopropyl)pyrimidine-2,4-diamine]
SIT--Time in interaction zone (s), single mice (C57BL/6J mice after CSDS; 10 mg/kg, session not given): 83.5 s and 59.3 s and 49.8 s and 72.2 s and 60.4 s and 74.9 s and 82.2 s and 43.8 s
CSDS: time spent in corners in SIT (in words) (C57BL/6J mice after CSDS; single i.p. injection 10 mg kg−1): significant decrease in the time spent in corners
IC50 [1]: 13.7 ± 0.61 µM
concentration at 1 h ([2]; kidney, read-out: Kidney Calculated Concentration): 18400 ± 681 ng/mL
Kp at 1 h ([2]; kidney/plasma): 78.9 ± 2.74
concentration at 1 h ([2]; plasma, read-out: Plasma Calculated Concentration): 234 ± 14.4 ng/mL
